Calls of active or inactive are those of the source. The calls are words filed in the database; no cut-off is given here.
Experiments:
[1] = molecular target: LSD1/CoREST complex (Homo sapiens, UniProt O60341); assay: Inhibition of human recombinant LSD1/CoREST using ART(mK)QTARKSTGGKAPRKQLAGGK-biotin as substrate incubated for 15 mins; format: protein-complex assay
[2] = molecular target: P-glycoprotein (ABCB1, MDR1) (Homo sapiens, UniProt P08183); assay: Substrate activity at p-glycoprotein (unknown origin) expressed in pig LLC-PK1 cells coexpressing MDR1 assessed as efflux ratio at apparent permeability across basolateral to apical side to apparent permeability across apical to basolateral side at 1 uM measured after 1 hr by LC-MS/MS analysis; format: ADME, cell-based
[3] = Drug metabolism in Sprague-Dawley rat brain assessed as N-(6-fluoro-4-methylpyridin-3-yl)acetamide level in cortex at 10 mg/kg, iv measured after 1 hr by HPLC-UV and LC/MS analysis; format: ADME, organism-based; settings: in vivo
[4] = Drug metabolism in Sprague-Dawley rat brain assessed as N-(6-fluoro-4-methylpyridin-3-yl)acetamide level in cortex at 10 mg/kg, iv measured after 4 hrs by HPLC-UV and LC/MS analysis; format: ADME, organism-based; settings: in vivo
[5] = Drug uptake in Sprague-Dawley rat brain at 1 mg/kg, iv measured after 4 hrs by LC-MS analysis; format: ADME, organism-based; settings: in vivo, BLD = below limit of detection
[6] = Drug metabolism in Sprague-Dawley rat brain assessed as N-(6-fluoropyridin-3-yl)-N-methylacetamide level in cortex at 1 mg/kg, iv measured after 1 hr by HPLC-UV and LC/MS analysis; format: ADME, organism-based; settings: in vivo
[7] = Drug metabolism in Sprague-Dawley rat brain assessed as N-(6-fluoropyridin-3-yl)-N-methylacetamide level in cortex at 1 mg/kg, iv measured after 4 hrs by HPLC-UV and LC/MS analysis; format: ADME, organism-based; settings: in vivo
[8] = Drug metabolism in Sprague-Dawley rat brain assessed as 6-fluoronicotinic acid level in cortex at 10 mg/kg, iv measured after 1 hr by HPLC-UV and LC/MS analysis; format: ADME, organism-based; settings: in vivo
[9] = Drug metabolism in Sprague-Dawley rat brain assessed as 6-fluoronicotinic acid formation in cortex at 10 mg/kg, iv measured after 4 hrs by HPLC-UV and LC/MS analysis; format: ADME, organism-based; settings: in vivo
[10] = Drug uptake in Sprague-Dawley rat brain at 1 mg/kg, iv measured after 1 to 24 hrs by LC-MS analysis; format: ADME, organism-based; settings: in vivo, time 1-24 hrs
[11] = Retention time of the compound by HPLC method; format: physicochemical
[12] = Drug metabolism in Sprague-Dawley rat brain assessed as fluorine-containing metabolite level in cortex at 10 mg/kg, iv measured after 1 to 4 hrs by HPLC-UV and LC/MS analysis; format: ADME, organism-based; settings: in vivo, time 1-4 hrs
[13] = Drug metabolism in cryopreserved human hepatocytes assessed as hydrolysis-mediated 6-fluoro-4-methylnicotinic acid formation measured for 6 hrs by HPLC-UV and LC/MS analysis; format: ADME, cell-based, Hepatocyte
[14] = Drug metabolism in cryopreserved human hepatocytes assessed as N-acetylglucosamine conjugation-mediated metabolite formation measured for 6 hrs by HPLC-UV and LC/MS analysis; format: ADME, cell-based, Hepatocyte
[15] = Drug metabolism in cryopreserved rat hepatocytes assessed as hydrolysis-mediated 6-fluoro-4-methylnicotinic acid formation measured for 6 hrs by HPLC-UV and LC/MS analysis; format: ADME, cell-based, Hepatocyte
[16] = Drug metabolism in cryopreserved rat hepatocytes assessed as N-acetylglucosamine conjugation-mediated metabolite formation measured for 6 hrs by HPLC-UV and LC/MS analysis; format: ADME, cell-based, Hepatocyte
[17] = Drug metabolism in cryopreserved monkey hepatocytes assessed as N-acetylglucosamine conjugation-mediated metabolite formation measured for 6 hrs by HPLC-UV and LC/MS analysis; format: ADME, cell-based, Macaca mulatta, Hepatocyte; settings: rhesus monkey
[18] = Drug metabolism in cryopreserved monkey hepatocytes assessed as hydrolysis-mediated 6-fluoro-4-methylnicotinic acid formation measured for 6 hrs by HPLC-UV and LC/MS analysis; format: ADME, cell-based, Macaca mulatta, Hepatocyte; settings: rhesus monkey
[19] = molecular target: Lysine-specific histone demethylase 1A (Homo sapiens) (UniProt O60341); assay: Binding affinity to human recombinant LSD1 assessed as compound-FAD adduct formation at 1 mM incubated for 1 hr by LC-MS analysis
[20] = molecular target: T1, Amine oxidase [flavin-containing] A (Homo sapiens, UniProt P21397); assay: Inhibition of MAO-A (unknown origin) incubated for 10 mins followed by MAO substrate addition and measured after 60 mins by luciferin-based luminescence assay
T1 sequence (P21397 whole entry): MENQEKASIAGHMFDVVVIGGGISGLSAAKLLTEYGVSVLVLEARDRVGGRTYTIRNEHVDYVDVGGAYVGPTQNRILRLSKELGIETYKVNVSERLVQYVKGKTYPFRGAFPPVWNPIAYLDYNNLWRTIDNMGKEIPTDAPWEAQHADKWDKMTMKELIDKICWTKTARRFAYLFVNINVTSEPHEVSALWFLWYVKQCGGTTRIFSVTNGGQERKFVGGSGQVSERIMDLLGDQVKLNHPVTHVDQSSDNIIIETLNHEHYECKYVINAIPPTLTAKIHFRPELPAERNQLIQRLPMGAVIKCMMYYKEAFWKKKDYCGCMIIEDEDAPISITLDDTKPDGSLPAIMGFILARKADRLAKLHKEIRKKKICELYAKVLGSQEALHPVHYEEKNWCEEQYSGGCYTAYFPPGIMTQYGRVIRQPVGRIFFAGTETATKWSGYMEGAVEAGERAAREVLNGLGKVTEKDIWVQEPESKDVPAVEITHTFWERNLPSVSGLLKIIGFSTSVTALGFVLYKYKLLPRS

[21] = molecular target: T2, Amine oxidase [flavin-containing] B (Homo sapiens, UniProt P27338); assay: Inhibition of MAO-B (unknown origin) incubated for 10 mins followed by MAO substrate addition and measured after 60 mins by luciferin-based luminescence assay
T2 sequence (P27338 whole entry): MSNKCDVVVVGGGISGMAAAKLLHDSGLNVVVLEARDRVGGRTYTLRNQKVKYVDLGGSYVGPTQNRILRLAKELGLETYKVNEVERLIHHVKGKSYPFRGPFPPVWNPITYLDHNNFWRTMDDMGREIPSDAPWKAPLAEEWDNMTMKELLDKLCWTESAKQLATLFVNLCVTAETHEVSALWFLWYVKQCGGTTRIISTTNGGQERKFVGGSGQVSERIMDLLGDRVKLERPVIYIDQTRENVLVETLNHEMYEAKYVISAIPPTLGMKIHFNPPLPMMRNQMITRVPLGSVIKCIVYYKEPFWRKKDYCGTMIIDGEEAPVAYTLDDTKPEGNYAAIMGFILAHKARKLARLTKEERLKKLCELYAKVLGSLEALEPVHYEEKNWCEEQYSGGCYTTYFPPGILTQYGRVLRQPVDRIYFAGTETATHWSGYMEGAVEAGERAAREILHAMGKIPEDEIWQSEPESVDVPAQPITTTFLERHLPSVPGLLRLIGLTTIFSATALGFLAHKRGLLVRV

[22] = Drug concentration in cynomolgus monkey plasma at 0.1 mg/kg, iv measured after 5 mins by LC-MS/MS analysis; format: ADME, organism-based, Macaca fascicularis
[23] = AUC(0 to 6 hrs) in cynomolgus monkey at 0.1 mg/kg, iv by LC-MS/MS analysis; format: ADME, organism-based, Macaca fascicularis; parameters: dose 0.1 mg/kg, route iv; settings: in vivo
[24] = Half life in cynomolgus monkey at 0.1 mg/kg, iv by LC-MS/MS analysis; format: ADME, organism-based, Macaca fascicularis; settings: in vivo
[25] = Total clearance in cynomolgus monkey at 0.1 mg/kg, iv by LC-MS/MS analysis; format: ADME, organism-based, Macaca fascicularis; settings: in vivo
[26] = Volume of distribution at steady state in cynomolgus monkey at 0.1 mg/kg, iv by LC-MS/MS analysis; format: ADME, organism-based, Macaca fascicularis; settings: in vivo, read-out: Vdss
[27] = Unbound drug concentration in Sprague-Dawley rat plasma assessed as free fraction ratio; format: ADME, cell-free
[28] = Unbound drug concentration in cynomolgus monkey plasma assessed as free fraction ratio; format: ADME, cell-free, Macaca fascicularis
[29] = Unbound drug concentration in Sprague-Dawley rat brain homogenate assessed as free fraction ratio; format: ADME, tissue-based
[30] = Lipophilicity, logD of the compound at pH 7.4; format: physicochemical; settings: buffer
[31] = Drug uptake in rhesus monkey cerebellum administered intravenously and measured after 90 to 180 mins by PET/MRI imaging analysis; format: ADME, tissue-based, Macaca mulatta; settings: in vivo, iv, time 90-180 min
[32] = Drug uptake in rhesus monkey anterior cingulate cortex administered intravenously and measured after 90 to 180 mins by PET/MRI imaging analysis; format: ADME, tissue-based, Macaca mulatta; settings: in vivo, iv, time 90-180 min
[33] = Drug uptake in rhesus monkey frontal lobe administered intravenously and measured after 90 to 180 mins by PET/MRI imaging analysis; format: ADME, tissue-based, Macaca mulatta; settings: in vivo, iv, time 90-180 min
[34] = Drug uptake in rhesus monkey caudate nucleus administered intravenously and measured after 90 to 180 mins by PET/MRI imaging analysis; format: ADME, tissue-based, Macaca mulatta; settings: in vivo, iv, time 90-180 min
[35] = Drug uptake in rhesus monkey pons administered intravenously and measured after 90 to 180 mins by PET/MRI imaging analysis; format: ADME, tissue-based, Macaca mulatta; settings: in vivo, iv, time 90-180 min
[36] = Drug uptake in rhesus monkey cerebellum administered intravenously pretreated with N-(4-[(1S,2R)/(1R,2S)-2-[(Cyclopropylmethyl)amino)cyclopropyl)phenyl)-6-fluoro-4-methylpyridine-3-carboxamide followed by compound addition and measured after 90 to 180 mins by PET/MRI imaging analysis; format: ADME, Macaca mulatta; settings: in vivo, iv, time 90-180 min

Chain of P-glycoprotein (ABCB1, MDR1) (P08183 whole entry): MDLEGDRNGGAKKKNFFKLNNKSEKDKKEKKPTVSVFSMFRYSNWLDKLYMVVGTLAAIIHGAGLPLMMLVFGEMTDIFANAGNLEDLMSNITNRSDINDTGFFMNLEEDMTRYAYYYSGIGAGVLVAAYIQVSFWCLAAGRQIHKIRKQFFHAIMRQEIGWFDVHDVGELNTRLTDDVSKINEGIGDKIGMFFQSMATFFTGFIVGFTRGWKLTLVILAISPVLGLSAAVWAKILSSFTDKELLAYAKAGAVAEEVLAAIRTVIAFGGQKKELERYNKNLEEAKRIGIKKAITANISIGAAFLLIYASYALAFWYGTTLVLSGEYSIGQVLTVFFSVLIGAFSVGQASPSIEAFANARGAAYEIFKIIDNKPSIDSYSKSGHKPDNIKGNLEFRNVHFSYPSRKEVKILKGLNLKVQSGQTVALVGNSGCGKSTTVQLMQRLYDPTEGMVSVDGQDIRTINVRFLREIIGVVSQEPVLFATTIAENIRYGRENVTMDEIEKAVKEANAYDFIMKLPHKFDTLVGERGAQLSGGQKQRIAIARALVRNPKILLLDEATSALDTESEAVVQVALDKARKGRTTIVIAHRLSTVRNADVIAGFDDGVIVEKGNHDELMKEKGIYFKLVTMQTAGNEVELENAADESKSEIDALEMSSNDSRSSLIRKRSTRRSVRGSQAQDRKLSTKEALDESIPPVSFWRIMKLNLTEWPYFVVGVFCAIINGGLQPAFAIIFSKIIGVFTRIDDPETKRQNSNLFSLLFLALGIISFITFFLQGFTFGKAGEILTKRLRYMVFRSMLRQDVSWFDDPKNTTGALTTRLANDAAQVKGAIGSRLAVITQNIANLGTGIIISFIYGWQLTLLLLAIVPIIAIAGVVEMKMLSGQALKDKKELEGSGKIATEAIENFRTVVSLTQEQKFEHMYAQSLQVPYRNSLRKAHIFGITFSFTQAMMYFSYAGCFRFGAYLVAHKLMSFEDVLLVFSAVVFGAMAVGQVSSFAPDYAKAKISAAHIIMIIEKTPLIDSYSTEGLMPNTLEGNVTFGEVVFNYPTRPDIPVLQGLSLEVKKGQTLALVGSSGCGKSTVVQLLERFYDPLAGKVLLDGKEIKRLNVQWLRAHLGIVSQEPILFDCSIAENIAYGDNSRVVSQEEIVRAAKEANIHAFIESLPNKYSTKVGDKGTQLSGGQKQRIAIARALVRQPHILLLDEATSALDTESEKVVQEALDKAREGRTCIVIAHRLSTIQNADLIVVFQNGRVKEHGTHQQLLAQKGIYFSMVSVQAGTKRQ

## Cc1cc(F)ncc1N(C)C(=O)c1ccc([C@@H]2C[C@H]2NCC2CC2)cc1
[1]
  IC50: 3.9 nM
[2]
  efflux ratio at 1 h, 1 µM: 1.4
[3]
  Drug metabolism: 0.1 nmol/g
[4]
  Drug metabolism: 0.24 nmol/g

## Cc1nc(F)ccc1N(C)C(=O)c1ccc([C@@H]2C[C@H]2NCC2CC2)cc1
[1]
  IC50: 5.4 nM
[2]
  efflux ratio at 1 h, 1 µM: 1.3

## O=C(c1ccc([C@@H]2C[C@H]2NCC2CC2)cc1)N1CC(F)C1
[1]
  IC50: 64 nM
[2]
  efflux ratio at 1 h, 1 µM: 0.64

## CN(C(=O)c1ccc([C@@H]2C[C@H]2NCC2CC2)cc1)c1ccc(F)nc1
[5]
  Drug uptake: Bld
[6]
  Drug metabolism: 0.87 nmol/g
[7]
  Drug metabolism: 1.16 nmol/g

## O=C(Nc1ccc([C@@H]2C[C@H]2NCC2CC2)cc1)c1ccc(F)nc1
[1]
  IC50: 10 nM
[2]
  efflux ratio at 1 h, 1 µM: 0.8
[8]
  Drug metabolism: 0.28 nmol/g
[9]
  Drug metabolism: Metabolite_Notdetected

## CN(C(=O)c1ccc(CCC(=O)O)cc1)c1ccc(F)nc1
[10]
  Drug uptake: Not Active

## O=C(c1ccc([C@@H]2C[C@H]2NCC2CC2)cc1)N1CCC(F)CC1
[1]
  IC50: 24 nM
[2]
  efflux ratio at 1 h, 1 µM: 0.66

## Cc1cc(F)ncc1C(=O)O
[11]
  Retention_time: 2.19 min

## Cc1cc(F)ncc1C(=O)Nc1ccc([C@@H]2C[C@H]2NCC2CC2)cc1
[1]
  IC50: 7.2 nM
[2]
  efflux ratio at 1 h, 1 µM: 0.91
[12]
  Drug metabolism: 0.21 nmol/g
[11]
  Retention_time: 11.85 min
[13]
  Drug metabolism: Metabolite_Notdetected
[14]
  Drug metabolism: Metabolite_Notdetected
[15]
  Drug metabolism: Metabolite_Notdetected
[16]
  Drug metabolism: Metabolite_Notdetected
[17]
  Drug metabolism: Metabolite_Detected
[18]
  Drug metabolism: Metabolite_Notdetected
[19]
  Activity: Active
[20]
  IC50: > 100000 nM
[21]
  IC50: 33000 nM
[22]
  concentration at 5 min: 31.2 ng/mL
[23]
  AUC(0-t): 51.6 ng·h/mL
[24]
  half-life: 1.75 h
[25]
  clearance: 32.5 mL/min/kg
[26]
  Vd: 3.13 L/kg
[27]
  Ratio: 0.69
[28]
  Ratio: 0.67
[29]
  Ratio: 0.277
[30]
  logD: 1.62

## CC(=O)N(C)c1ccc(F)nc1
[10]
  Drug uptake: Active

## Cc1cc([18F])ncc1C(=O)Nc1ccc([C@@H]2C[C@H]2NCC2CC2)cc1
[31]
  Drug uptake: Active
[32]
  Drug uptake: Active
[33]
  Drug uptake: Active
[34]
  Drug uptake: Active
[35]
  Drug uptake: Active
[36]
  Drug uptake: Not Active
